Test results as given in ChEMBL document CHEMBL4411307, “N,N'-diaryl-bishydrazones in a biphenyl platform: Broad spectrum antifungal agents” (Eur J Med Chem, 2019).
≈ marks a conversion by molar mass, not a printed value. Calls of active or inactive are those of the source. The rule behind the calls is not given here.

Tests used:
Candida albicans [1] = experiment: Antifungal activity against fluconazole/ITC-resistant Candida albicans ATCC 64124 measured after 48 hrs by CLSI M27-A3 protocol based method; type: functional; details: ATCC 64124, 48 h
[2] = Selectivity index, ratio of compound concentration showing <25% hemolysis in mouse RBC to MIC for Aspergillus flavus ATCC MYA-3631; type: toxicity; details: mouse red blood cells (RBC), read-out: Selectivity Index
Staphylococcus aureus = experiment: Antibacterial activity against methicillin-resistant Staphylococcus aureus; type: functional, organism-based
[3] = Selectivity index, ratio of compound concentration showing <25% hemolysis in mouse RBC to MIC for Candida krusei ATCC 6258; type: toxicity; details: mouse red blood cells (RBC), read-out: Selectivity Index
Candida albicans [4] = experiment: Antifungal activity against fluconazole/ITC-susceptible Candida albicans ATCC MYA-2876 measured after 48 hrs by CLSI M27-A3 protocol based method; type: functional; details: ATCC MYA-2876, 48 h
[5] = Hemolytic activity in mouse RBC at 62.5 ug/ml after 1 hr relative to control; type: ADME, cell-based, Erythrocyte; details: red blood cells (erythrocytes), read-out: Activity
[6] = Selectivity index, ratio of CC50 for human A549 cells to MIC for fluconazole/ITC-susceptible Candida albicans ATCC MYA-2876; type: toxicity; details: read-out: Selectivity Index
[7] = Selectivity index, ratio of CC50 for human A549 cells to MIC for Candida parapsilosis ATCC 22019; type: toxicity; details: read-out: Selectivity Index
[8] = Selectivity index, ratio of CC50 for human A549 cells to MIC for Candida krusei ATCC 6258; type: toxicity; details: read-out: Selectivity Index
[9] = Selectivity index, ratio of CC50 for human A549 cells to MIC for fluconazole/ITC-susceptible Candida albicans ATCC MYA-2310; type: toxicity; details: read-out: Selectivity Index
[10] = Selectivity index, ratio of compound concentration showing <25% hemolysis in mouse RBC to MIC for Candida parapsilosis ATCC 22019; type: toxicity; details: mouse red blood cells (RBC), read-out: Selectivity Index
Pichia kudriavzevii = experiment: Antifungal activity against Candida krusei ATCC 6258 measured after 48 hrs by CLSI M27-A3 protocol based method; type: functional; details: ATCC 6258, 48 h
Candida albicans [11] = experiment: Antifungal activity against fluconazole/ITC-susceptible Candida albicans ATCC MYA-2310 measured after 48 hrs by CLSI M27-A3 protocol based method; type: functional; details: ATCC MYA-2310, 48 h
Enterococcus = experiment: Antibacterial activity against vancomycin-resistant Enterococcus; type: functional, organism-based
Candida albicans [12] = experiment: Antifungal activity against fluconazole/ITC-resistant Candida albicans ATCC MYA-1003 measured after 48 hrs by CLSI M27-A3 protocol based method; type: functional; details: ATCC MYA-1003, 48 h
Aspergillus terreus = experiment: Antifungal activity against Aspergillus terreus ATCC MYA-3633 measured after 48 hrs by CLSI M38-A2 protocol based method; type: functional; details: ATCC MYA-3633, 48 h
Listeria monocytogenes = experiment: Antibacterial activity against Listeria monocytogenes; type: functional, organism-based
Candida albicans [13] = experiment: Antifungal activity against fluconazole/ITC-resistant Candida albicans ATCC 90819 measured after 48 hrs by CLSI M27-A3 protocol based method; type: functional; details: ATCC 90819, 48 h
[14] = Selectivity index, ratio of CC50 for human A549 cells to MIC for Aspergillus nidulans ATCC 38163; type: toxicity; details: read-out: Selectivity Index
[15] = Selectivity index, ratio of CC50 for human A549 cells to MIC for fluconazole/ITC-resistant Candida albicans ATCC MYA-1003; type: toxicity; details: read-out: Selectivity Index
[16] = Selectivity index, ratio of compound concentration showing <25% hemolysis in mouse RBC to MIC for fluconazole/ITC-resistant Candida albicans ATCC 64124; type: toxicity; details: mouse red blood cells (RBC), read-out: Selectivity Index
[17] = Selectivity index, ratio of CC50 for human A549 cells to MIC for Aspergillus flavus ATCC MYA-3631; type: toxicity; details: read-out: Selectivity Index
[18] = Hemolytic activity in mouse RBC at 7.8 ug/ml after 1 hr relative to control; type: ADME, cell-based, Erythrocyte; details: red blood cells (erythrocytes), read-out: Activity
[19] = Selectivity index, ratio of CC50 for human A549 cells to MIC for fluconazole/ITC-resistant Candida albicans ATCC MYA-1237; type: toxicity; details: read-out: Selectivity Index
[20] = Selectivity index, ratio of CC50 for human A549 cells to MIC for fluconazole/ITC-resistant Candida albicans ATCC 90819; type: toxicity; details: read-out: Selectivity Index
[21] = Selectivity index, ratio of compound concentration showing <25% hemolysis in mouse RBC to MIC for Aspergillus nidulans ATCC 38163; type: toxicity; details: mouse red blood cells (RBC), read-out: Selectivity Index
[22] = Selectivity index, ratio of compound concentration showing <25% hemolysis in mouse RBC to MIC for fluconazole/ITC-resistant Candida albicans ATCC 90819; type: toxicity; details: mouse red blood cells (RBC), read-out: Selectivity Index
[23] = Selectivity index, ratio of CC50 for human A549 cells to MIC for fluconazole/ITC-resistant Candida albicans ATCC 10231; type: toxicity; details: read-out: Selectivity Index
[24] = Selectivity index, ratio of compound concentration showing <25% hemolysis in mouse RBC to MIC for fluconazole/ITC-resistant Candida albicans ATCC 10231; type: toxicity; details: mouse red blood cells (RBC), read-out: Selectivity Index
[25] = Selectivity index, ratio of CC50 for human A549 cells to MIC for fluconazole/ITC-resistant Candida albicans ATCC 64124; type: toxicity; details: read-out: Selectivity Index
[26] = Selectivity index, ratio of CC50 for human A549 cells to MIC for Aspergillus terreus ATCC MYA-3633; type: toxicity; details: read-out: Selectivity Index
[27] = Hemolytic activity in mouse RBC at 1.95 ug/ml after 1 hr relative to control; type: ADME, cell-based, Erythrocyte; details: red blood cells (erythrocytes), read-out: Activity
[28] = Selectivity index, ratio of compound concentration showing <25% hemolysis in mouse RBC to MIC for Aspergillus terreus ATCC MYA-3633; type: toxicity; details: mouse red blood cells (RBC), read-out: Selectivity Index
BEAS-2B = experiment: Cytotoxicity against human BEAS2B cells after 24 hrs by resazurin based assay; type: cell-based
[29] = Selectivity index, ratio of CC50 for human A549 cells to MIC for Candida glabrata ATCC 2001; type: toxicity; details: read-out: Selectivity Index
Nakaseomyces glabratus = experiment: Antifungal activity against Candida glabrata ATCC 2001 measured after 48 hrs by CLSI M27-A3 protocol based method; type: functional; details: CBS 138, 48 h
[30] = Hemolytic activity in mouse RBC at […] after 1 hr relative to control; type: ADME, cell-based, Erythrocyte; details: red blood cells (erythrocytes), read-out: Activity; also: tested at 0.48 µg/mL
[31] = Selectivity index, ratio of compound concentration showing <25% hemolysis in mouse RBC to MIC for Candida glabrata ATCC 2001; type: toxicity; details: mouse red blood cells (RBC), read-out: Selectivity Index
[32] = Hemolytic activity in mouse RBC at 3.9 ug/ml after 1 hr relative to control; type: ADME, cell-based, Erythrocyte; details: red blood cells (erythrocytes), read-out: Activity
[33] = Selectivity index, ratio of compound concentration showing <25% hemolysis in mouse RBC to MIC for fluconazole/ITC-susceptible Candida albicans ATCC MYA-2310; type: toxicity; details: mouse red blood cells (RBC), read-out: Selectivity Index
[34] = Hemolytic activity in mouse RBC at 31.3 ug/ml after 1 hr relative to control; type: ADME, cell-based, Erythrocyte; details: red blood cells (erythrocytes), read-out: Activity
Candida parapsilosis = experiment: Antifungal activity against Candida parapsilosis ATCC 22019 measured after 48 hrs by CLSI M27-A3 protocol based method; type: functional; details: Lodderomyces parapsilosis, ATCC 22019, 48 h
Aspergillus flavus = experiment: Antifungal activity against Aspergillus flavus ATCC MYA-3631 measured after 48 hrs by CLSI M38-A2 protocol based method; type: functional; details: ATCC MYA-3631, 48 h
[35] = Selectivity index, ratio of compound concentration showing <25% hemolysis in mouse RBC to MIC for fluconazole/ITC-resistant Candida albicans ATCC MYA-1003; type: toxicity; details: mouse red blood cells (RBC), read-out: Selectivity Index
[36] = Hemolytic activity in mouse RBC at […] ug/ml after 1 hr relative to control; type: ADME, cell-based, Erythrocyte; details: red blood cells (erythrocytes), read-out: Activity
[37] = Selectivity index, ratio of compound concentration showing <25% hemolysis in mouse RBC to MIC for fluconazole/ITC-resistant Candida albicans ATCC MYA-1237; type: toxicity; details: mouse red blood cells (RBC), read-out: Selectivity Index
Candida albicans [38] = experiment: Antifungal activity against fluconazole/ITC-resistant Candida albicans ATCC 10231 measured after 48 hrs by CLSI M27-A3 protocol based method; type: functional; details: ATCC 10231, 48 h
Candida albicans [39] = experiment: Antifungal activity against fluconazole/ITC-resistant Candida albicans ATCC MYA-1237 measured after 48 hrs by CLSI M27-A3 protocol based method; type: functional; details: ATCC MYA-1237, 48 h
Aspergillus nidulans = experiment: Antifungal activity against Aspergillus nidulans ATCC 38163 measured after 48 hrs by CLSI M38-A2 protocol based method; type: functional; details: ATCC 38163, 48 h
A549 = experiment: Cytotoxicity against human A549 cells after 24 hrs by resazurin based assay; type: cell-based; details: a549, 24 h
[40] = Selectivity index, ratio of compound concentration showing <25% hemolysis in mouse RBC to MIC for fluconazole/ITC-susceptible Candida albicans ATCC MYA-2876; type: toxicity; details: mouse red blood cells (RBC), read-out: Selectivity Index

## Fc1ccc(N/N=C/c2ccc(-c3cccc(/C=N/Nc4ccc(F)cc4F)c3)cc2)c(F)c1
Candida albicans [1]
  MIC: 7.8 µg/mL (≈ 16.9 µM)
[2]
  selectivity ratio: 1 to 32
Staphylococcus aureus
  Activity: inactive
[3]
  selectivity ratio: 1 to 32
Candida albicans [4]
  MIC: 15.6 µg/mL (≈ 33.7 µM)
[5]
  hemolysis at 1 h, 62.5 ug/ml: 23.5%
[6]
  selectivity ratio: 1.1
[7]
  selectivity ratio: 0.5
[8]
  selectivity ratio: 8.4
[9]
  selectivity ratio: 1.1
[10]
  selectivity ratio: 1 to 32
Pichia kudriavzevii
  MIC: 1.95 µg/mL (≈ 4.22 µM)
Candida albicans [11]
  MIC: 15.6 µg/mL (≈ 33.7 µM)
Enterococcus
  Activity: inactive
Candida albicans [12]
  MIC: 7.8 µg/mL (≈ 16.9 µM)
Aspergillus terreus
  MIC: 31.3 µg/mL (≈ 67.7 µM)
Listeria monocytogenes
  Activity: inactive
Candida albicans [13]
  MIC: 15.6 µg/mL (≈ 33.7 µM)
[14]
  selectivity ratio: 2.1
[15]
  selectivity ratio: 2.1
[16]
  selectivity ratio: 1 to 32
[17]
  selectivity ratio: 2.1
[18]
  hemolysis at 1 h, 7.8 ug/ml: 8.6%
[19]
  selectivity ratio: 2.1
[20]
  selectivity ratio: 1.1
[21]
  selectivity ratio: 1 to 32
[22]
  selectivity ratio: 1 to 32
[23]
  selectivity ratio: 4.2
[24]
  selectivity ratio: 1 to 32
[25]
  selectivity ratio: 2.1
[26]
  selectivity ratio: 0.5
[27]
  hemolysis at 1 h, 1.95 ug/ml: 4.5%
[28]
  selectivity ratio: 1 to 32
BEAS-2B
  CC50: 16.9 µg/mL (≈ 36.5 µM)
[29]
  selectivity ratio: 1.1
Nakaseomyces glabratus
  MIC: 15.6 µg/mL (≈ 33.7 µM)
[30]
  hemolysis at 1 h, […]: 1.6%
[31]
  selectivity ratio: 1 to 32
[32]
  hemolysis at 1 h, 3.9 ug/ml: 4.2%
[33]
  selectivity ratio: 1 to 32
[34]
  hemolysis at 1 h, 31.3 ug/ml: 14.6%
Candida parapsilosis
  MIC: 31.3 µg/mL (≈ 67.7 µM)
Aspergillus flavus
  MIC: 7.8 µg/mL (≈ 16.9 µM)
[35]
  selectivity ratio: 1 to 32
[36]; at 15.6 µg/mL
  hemolysis at 1 h, 15.6 ug/ml: 14.6%
[36]
  hemolysis at 1 h, 0.975 ug/ml: 0%
[37]
  selectivity ratio: 1 to 32
Candida albicans [38]
  MIC: 3.9 µg/mL (≈ 8.43 µM)
Candida albicans [39]
  MIC: 7.8 µg/mL (≈ 16.9 µM)
Aspergillus nidulans
  MIC: 7.8 µg/mL (≈ 16.9 µM)
A549
  CC50: 16.4 µg/mL (≈ 35.5 µM)
[40]
  selectivity ratio: 1 to 32
